Source: ChEMBL document CHEMBL4706669, “Majonoside-R2 extracted from Vietnamese ginseng protects H9C2 cells against hypoxia/reoxygenation injury via modulating mitochondrial function and biogenesis” (2021)
The source made the active and inactive calls. No cut-off for these calls is given here.

Experiments:
[1] = system: H9c2; assay: Cardioprotective activity against HR-induced injury in rat H9c2 cells assessed as increase in cell viability at 10 uM by CCK-8 assay relative to control; type: functional
[2] = system: H9c2; assay: Protection against HR-induced mitochondrial dysfunction in rat H9c2 cells assessed as increase in cardiolipin content by fluorescence microplate reader; type: functional, cell-based
[3] = system: H9c2; assay: Protection against HR-induced mitochondrial dysfunction in rat H9c2 cells assessed as mitochondrial membrane potential by measuring TMRE intensity by fluorescence microplate reader (reference value: 98.59 +/- 0.96 %); type: functional, cell-based; conditions: dose 9.0 µM
[4] = system: H9c2; assay: Protection against HR-induced mitochondrial dysfunction in rat H9c2 cells assessed as decrease in ROS production by fluorescence microplate reader; type: functional, cell-based
[5] = Induction of mitochondrial biogenesis in rat H9c2 cells with HR-induced injury assessed as upregulation of PGC1beta mRNA expression relative to GADPH (reference value: 0.981 +/- 0.007); type: functional
[6] = system: H9c2; assay: Induction of mitochondrial biogenesis in rat H9c2 cells with HR-induced injury assessed as upregulation of TFAM expression; type: functional, cell-based
[7] = system: H9c2; assay: Induction of mitochondrial biogenesis in rat H9c2 cells with HR-induced injury assessed as effect on PGC1alpha mRNA expression; type: functional, cell-based
[8] = system: H9c2; assay: Induction of mitochondrial biogenesis in rat H9c2 cells with HR-induced injury assessed as increase in NRF-1 mRNA expression; type: functional, cell-based
[9] = system: H9c2; assay: Cardioprotective activity against HR-induced injury in rat H9c2 cells assessed as increase in cell viability at 9 uM by CCK-8 assay relative to control; type: functional
[10] = system: H9c2; assay: Induction of mitochondrial biogenesis in rat H9c2 cells with HR-induced injury assessed as […] in NRF-2 mRNA expression; type: functional, cell-based
[11] = system: H9c2; assay: Cardioprotective activity against HR-induced injury in rat H9c2 cells assessed as increase in cell viability at 0.1 to 90 uM by CCK-8 assay; type: functional, cell-based; conditions: dose 0.1-90 µM
[12] = Induction of mitochondrial biogenesis in rat H9c2 cells with HR-induced injury assessed as upregulation of ATP5I expression (reference value: 0.998 +/- 0.001); type: functional
[13] = Induction of mitochondrial biogenesis in rat H9c2 cells with HR-induced injury assessed as upregulation of PPAR expression by immunoblotting (reference value: 0.065 +/- 0.019); type: functional
[14] = system: H9c2; assay: Induction of mitochondrial biogenesis in rat H9c2 cells with HR-induced injury assessed as increase in NAO intensity by fluorescence microscopic analysis; type: functional, cell-based
[15] = system: H9c2; assay: Increase in mitochondrial mass in rat H9c2 cells with HR-induced injury assessed as increase in NAO intensity by fluorescence microscopic analysis; type: functional, cell-based

## CS(=O)(=O)O.CS(=O)(=O)O.O=S1(=O)CCN(Cc2cc(NCC3CCOCC3)c3[nH]c(-c4ccccc4)cc3c2)CC1
[1]
  Activity: 84.37%
[2]
  Activity: Active
[3]
  Activity: Active
[4]
  Activity: Active

## CC(C)(O)[C@@H]1CC[C@@](C)([C@H]2CC[C@]3(C)[C@@H]2[C@H](O)C[C@@H]2[C@@]4(C)CC[C@H](O)C(C)(C)[C@@H]4[C@@H](O[C@@H]4O[C@H](CO)[C@@H](O)[C@H](O)[C@H]4O[C@@H]4OC[C@@H](O)[C@H](O)[C@H]4O)C[C@]23C)O1 [MAJONOSIDE R2]
[5]
  fold change (FC): 1.113
[6]
  Activity: Active
[7]
  Activity: inactive
[8]
  Activity: Active
[9]
  Activity: 78.09%
[10]
  Activity: Active
[2]
  Activity: Active
[11]
  Activity: Active
[12]
  fold change (FC): 1.135
[13]
  fold change (FC): 0.867
[3]
  Activity: Active
[14]
  Activity: Active
[15]
  Activity: Active
[4]
  Activity: Active
